According to EP0672658B1, “Antithrombotic agents” (priority 1994, dated 1995):
Counter-ions that a name gives are not always drawn. Like-named read-outs stand apart in the source and are kept apart here.

Key:
human or animal plasma [1] = assay: Anticoagulation determination in plasma: activated partial thromboplastin time (APTT); type: biochemical; details: concentration doubling activated partial thromboplastin time
Experimental: (§1) Dog plasma and rat plasma is obtained from conscious mixed-breed hounds (either sex, Hazelton-LRE, Kalamazoo, Michigan, U.S.A.) or from anesthetized male Sprague-Dawley rats (Harlan Sprague-Dawley, Inc., Indianapolis, Indiana, U.S.A.) by venipuncture into 3.8 percent citrate. Fibrinogen is prepared from in-date ACD human blood as the fraction I-2 according to previous procedures and specifications. Smith, Biochem. J., 185, 1-11 (1980); and Smith, et al., Biochemistry, 11, 2958-2967 (1972). Human fibrinogen is also purchased as 98 percent pure/plasmin free from American Diagnostica, Greenwich, Connecticut. Coagulation reagents ACTIN, Thromboplastin, and Human plasma are from Baxter Healthcare Corp., Dade Division, Miami, Florida. Bovine thrombin from Parke-Davis (Ann Detroit, Michigan) is used for coagulation assays in plasma.
(§2) Coagulation assay procedures are as previously described. Smith, et al., Thrombosis Research, 50, 163-174 (1988). A CoAScreener coagulation instrument (American LABor, Inc.) is used for all coagulation assay measurements. The prothrombin time (PT) is measured by adding 0.05 mL saline and 0.05 mL Thromboplastin-C reagent to 0.05 mL test plasma. The activated partial thromboplastin time (APTT) is measured by incubation of 0.05 mL test plasma with 0.05 mL Actin reagent for 120 seconds followed by 0.05 mL CaCl2 (0.02 M). The thrombin time (TT) is measured by adding 0.05 mL saline and 0.05 mL thrombin (10 NIH units/mL) to 0.05 mL test plasma. The compounds of Formula I are added to human or animal plasma over a wide range of concentrations to determine prolongation effects on the APTT, PT, and TT assays. Linear extrapolations are performed to estimate the concentrations required to double the clotting time for each assay.

human or animal plasma [2] = assay: Anticoagulation determination in plasma: thrombin time (TT); type: biochemical; details: concentration doubling thrombin time
Experimental: as §1, §2

Human Thrombin = Human Thrombin (Homo sapiens, UniProt P00734); assay: biochemical; details: read-out: Kass Human Thrombin (converted)
human or animal plasma [3] = assay: Anticoagulation determination in plasma: prothrombin time (PT); type: biochemical; details: concentration doubling prothrombin time
Experimental: as §1, §2

factor Xa = factor Xa (Homo sapiens, UniProt P00742); assay: biochemical
Sequence of factor Xa (P00742 235-488 limits assumed): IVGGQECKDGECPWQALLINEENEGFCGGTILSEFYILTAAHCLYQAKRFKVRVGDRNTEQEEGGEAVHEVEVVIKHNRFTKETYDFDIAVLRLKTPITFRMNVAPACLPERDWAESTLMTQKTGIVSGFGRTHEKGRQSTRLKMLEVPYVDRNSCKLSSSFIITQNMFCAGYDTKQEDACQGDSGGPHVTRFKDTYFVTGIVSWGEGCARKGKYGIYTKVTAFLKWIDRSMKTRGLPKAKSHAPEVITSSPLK
Sequence of factor Xa (P00742 41-179 partner limits assumed): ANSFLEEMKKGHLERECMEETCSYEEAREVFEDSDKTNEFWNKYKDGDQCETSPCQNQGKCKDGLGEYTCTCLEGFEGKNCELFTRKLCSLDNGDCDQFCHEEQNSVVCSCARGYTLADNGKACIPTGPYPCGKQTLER
Experimental: (§3) By substantially following the procedures described above for human thrombin, and using other human blood coagulation system serine proteases and proteases of the fibrinolytic system with the appropriate chromogenic substrates, identified below, selectivity of the compounds of the present invention with respect to the coagulation factor serine proteases and with respect to the fibrinolytic system serine proteases are evaluated as well as their substantial lack of interference with serine proteases of the fibrinolytic system. Thrombin inhibitors preferably should spare fibrinolysis induced by urokinase, tissue plasminogen activator (t-PA) and streptokinase. This would be important to the therapeutic use of such agents as an adjunct to streptokinase, t-PA or urokinase thrombolytic therapy and to the use of such agents as an endogenous fibrinolysis-sparing (with respect to t-PA and urokinase) antithrombotic agent. In addition to the lack of interference with the amidase activity of the fibrinolytic proteases, such fibrinolytic system sparing can be studied by the use of human plasma clots and their lysis by the respective fibrinolytic plasminogen activators.
(§4) Human factors X, Xa, IXa, XIa, and XIIa are purchased from Enzyme Research Laboratories, South Bend, Indiana; human urokinase from Leo Pharmaceuticals, Denmark; and recombinant activated Protein C (aPC) is prepared at Eli Lilly and Co. substantially according to U.S. Patent 4,981,952. Chromogenic substrates: N-Benzoyl-Ile-Glu-Gly-Arg-p-nitroanilide (for factor Xa); N-Cbz-D-Arg-Gly-Arg-p-nitroanilide (for factor IXa assay as the factor Xa substrate); Pyroglutamyl-Pro-Arg-p-nitroanilide (for Factor XIa and for aPC); H-D-Pro-Phe-Arg-p-nitroanilide (for factor XIIa); and Pyroglutamyl-Gly-Arg-p-nitroanilide (for urokinase); are purchased from KabiVitrum, Stockholm, Sweden, or from Midwest Biotech, Fishers, Indiana. Bovine trypsin is purchased from Worthington Biochemicals, Freehold, New Jersey, and human plasma kallikrein from Kabi Vitrum, Stockholm, Sweden. Chromogenic substrate H-D-Pro-Phe-Arg-p-nitroanilide for plasma kallikrein is purchased from Kabi Vitrum, Stockholm, Sweden. N-Benzoyl-Phe-Val-Arg-p-nitroanilide, the substrate for human thrombin and for trypsin, is synthesized according to procedures described above for the compounds of the present invention, using known methods of peptide coupling from commercially available reactants or purchased from Midwest Biotech, Fishers, Indiana.

Trypsin = target: T1, Trypsin (Bos taurus, UniProt P00760); assay: biochemical; parameters: species or system Bovine
T1 sequence (P00760 24-246): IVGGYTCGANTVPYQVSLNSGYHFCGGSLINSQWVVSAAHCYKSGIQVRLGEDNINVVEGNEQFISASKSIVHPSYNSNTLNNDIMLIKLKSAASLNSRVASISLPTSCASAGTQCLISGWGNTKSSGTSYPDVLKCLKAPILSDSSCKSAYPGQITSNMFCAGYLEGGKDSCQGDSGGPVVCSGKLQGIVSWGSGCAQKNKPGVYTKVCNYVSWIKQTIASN
Experimental: as §3, §4

Plasmin = target: T2, Plasmin (Homo sapiens, UniProt P00747); assay: biochemical
T2 construct: Human plasmin is purchased; purchased Boehringer Mannheim, Indianapolis, Indiana
T2 sequence (P00747 581-810 limits assumed): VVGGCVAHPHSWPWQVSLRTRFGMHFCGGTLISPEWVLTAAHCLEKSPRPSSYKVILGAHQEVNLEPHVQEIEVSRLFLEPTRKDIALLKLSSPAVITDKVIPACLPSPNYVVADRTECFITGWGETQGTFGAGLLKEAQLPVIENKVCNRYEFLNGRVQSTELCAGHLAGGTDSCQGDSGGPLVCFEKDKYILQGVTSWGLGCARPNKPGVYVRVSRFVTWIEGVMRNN
T2 sequence (P00747 97-580 partner limits assumed): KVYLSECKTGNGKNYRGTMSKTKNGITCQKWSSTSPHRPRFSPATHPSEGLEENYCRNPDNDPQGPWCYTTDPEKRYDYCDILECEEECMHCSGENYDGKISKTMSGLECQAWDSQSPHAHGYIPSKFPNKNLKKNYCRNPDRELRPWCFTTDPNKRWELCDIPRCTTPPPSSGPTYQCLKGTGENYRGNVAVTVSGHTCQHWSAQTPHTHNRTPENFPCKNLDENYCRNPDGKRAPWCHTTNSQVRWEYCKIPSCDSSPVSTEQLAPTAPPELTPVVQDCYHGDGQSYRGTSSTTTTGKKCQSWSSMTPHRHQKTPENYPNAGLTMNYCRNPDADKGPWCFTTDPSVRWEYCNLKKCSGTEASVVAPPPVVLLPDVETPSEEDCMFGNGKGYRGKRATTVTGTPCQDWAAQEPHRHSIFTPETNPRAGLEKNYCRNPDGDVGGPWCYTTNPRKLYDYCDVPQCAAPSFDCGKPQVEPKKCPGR
Experimental: as §3
(§5) Human plasmin is purchased from Boehringer Mannheim, Indianapolis, Indiana; nt-PA is purchased as single chain activity reference from American Diagnostica, Greenwich, Connecticut; modified-t-PA6 (mt-PA6) is prepared at Eli Lilly and Company by procedure known in the art (See, Burck, et al., J. Biol. Chem., 265, […] (1990). Plasmin chromogenic substrate H-D-Val-Leu-Lys-p-nitroanilide and tissue plasminogen activator (t-PA) substrate H-D-Ile-Pro-Arg-p-nitroanilide are purchased from Kabi Vitrum, Stockholm, Sweden.

t-PA = t-PA (Homo sapiens, UniProt P00750); assay: biochemical
Sequence of t-PA (P00750 36-562): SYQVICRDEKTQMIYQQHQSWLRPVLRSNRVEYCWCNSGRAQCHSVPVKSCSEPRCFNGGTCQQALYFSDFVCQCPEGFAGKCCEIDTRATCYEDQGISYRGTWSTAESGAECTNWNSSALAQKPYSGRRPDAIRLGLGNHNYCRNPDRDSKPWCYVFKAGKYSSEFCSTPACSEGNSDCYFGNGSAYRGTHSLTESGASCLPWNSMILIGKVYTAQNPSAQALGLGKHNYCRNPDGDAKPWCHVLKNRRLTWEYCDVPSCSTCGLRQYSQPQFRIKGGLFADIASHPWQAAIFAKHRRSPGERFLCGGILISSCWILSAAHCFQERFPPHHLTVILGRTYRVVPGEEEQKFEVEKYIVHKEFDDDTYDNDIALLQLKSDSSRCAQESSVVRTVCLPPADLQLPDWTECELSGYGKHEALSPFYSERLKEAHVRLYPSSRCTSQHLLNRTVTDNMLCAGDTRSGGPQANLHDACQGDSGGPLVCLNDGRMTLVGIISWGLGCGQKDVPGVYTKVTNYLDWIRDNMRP
Experimental: as §3, §5

[4] = read-out: Kass Trypsin (converted)
[5] = read-out: Kass Plasmin (converted)

Compound	Kd (Human Thrombin)	Kd (factor Xa; read-out: Kass Xa (converted))	Kd (Trypsin; [4])	Kd (Plasmin; [5])	Human Plasma Anticoagulation 2x Clotting time (ng/mL) APTT (human or animal plasma [1])	Human Plasma Anticoagulation 2x Clotting time (ng/mL) TT (human or animal plasma [2])	Human Plasma Anticoagulation 2x Clotting time (ng/mL) PT (human or animal plasma [3])	Kd (factor Xa)	Kd (Trypsin)	Kd (t-PA)	Kd (Plasmin)
N=C(N)c1ccc(CNC(=O)[C@@H]2CCCN2C(=O)[C@H](NCC(=O)O)C2CCCCC2)cc1 [Example 86, HOOCCH2-D-Chg-Pro-p-NHCH2C6H4C(NH)NH2·HCl]	0.005 µM	1.59 µM	–	–	81 ng/mL	4 ng/mL	180 ng/mL	–	–	–	–
N=C(N)c1ccc(CNC(=O)[C@@H]2CCCN2C(=O)[C@@H](CCc2ccccc2)NCC(=O)O)cc1 [Example 87, HOOCCH2-D-hPhe-Pro-p-NHCH2C6H4C(NH)NH2·HCl]	0.0333 µM	0.4 µM	–	–	260 ng/mL	9 ng/mL	310 ng/mL	–	–	–	–
N=C(N)Nc1ccc(CNC(=O)[C@@H]2CCCN2C(=O)[C@@H]2NCC[C@@H]3CCCC[C@@H]32)cc1 [Example 38, D-1-Piq-Pro-p-NHCH2C6H4NHC(NH)NH2·2HCl]	0.909 µM	> 1000 µM	14.3 µM	> 1000 µM	6,100 ng/mL	540 ng/mL	11,100 ng/mL	–	–	–	–
CCC(CC)C(=O)N[C@@H](CCS(C)(=O)=O)C(=O)N1CCC[C@H]1C(=O)NCc1ccc(C(=N)N)cc1 [Example 91, (C2H5)2CHCO-Met(O2)-Pro-p-NHCH2C6H4C(NH)NH2·HCl]	0.278 µM	143 µM	–	–	3,000 ng/mL	63 ng/mL	3,500 ng/mL	–	–	–	–
N=C(N)c1ccc(CNC(=O)[C@@H]2CCCN2C(=O)[C@@H](CCC2CCCCC2)NCC(=O)O)cc1 [Example 88, HOOCCH2-D-hCha-Pro-p-NHCH2C6H4C(NH)NH2·HCl]	0.00244 µM	0.256 µM	–	–	100 ng/mL	4 ng/mL	200 ng/mL	–	–	–	–
CCS(=O)(=O)N[C@H](CC1CCCCC1)C(=O)N1CCC[C@H]1C(=O)NCc1ccc(N)nc1 [Example 84, EtSO2-D-Cha-Pro-5-NHCH2-2-aminopyridine·HCl]	0.345 µM	–	14.3 µM	–	1,500 ng/mL	110 ng/mL	1,900 ng/mL	–	–	–	–
N=C(N)c1ccc(CNC(=O)[C@@H]2CCCN2C(=O)[C@H](N)Cc2ccccc2)cc1 [Example 15, hydrochloride]	–	–	–	–	–	9 ng/mL	–	143 µM	0.385 µM	250 µM	58.8 µM
Nc1cc(CCNC(=O)[C@@H]2CCCN2C(=O)[C@@H](CC2CCCCC2)NCC(=O)O)ccn1 [Example 76, HO2CCH2-D-Cha-Pro-4-NHCH2CH2-2-aminopyridine·HCl]	0.0833 µM	–	2.78 µM	–	490 ng/mL	29 ng/mL	560 ng/mL	–	–	–	–
N=C(N)Nc1cccc(CCNC(=O)[C@@H]2CCCN2C(=O)[C@@H]2NCC[C@@H]3CCCC[C@@H]32)c1 [Example 41, D-1-Piq-Pro-m-NHCH2CH2C6H4NHC(NH)NH2·2HCl]	100 µM	> 1000 µM	> 1000 µM	> 1000 µM	>91,000 ng/mL	82,200 ng/mL	>91,000 ng/mL	–	–	–	–
N=C(N)Nc1cccc(CNC(=O)[C@@H]2CCCN2C(=O)[C@@H]2NCC[C@@H]3CCCC[C@@H]32)c1 [Example 40, D-1-Piq-Pro-m-NHCH2C6H4NHC(NH)NH2·2HCl]	33.3 µM	> 1000 µM	100 µM	> 1000 µM	>91,000 ng/mL	35,100 ng/mL	>91,000 ng/mL	–	–	–	–

Continued, in another order:

Kd (Human Thrombin)	Kd (factor Xa; read-out: Kass Xa (converted))	Kd (Trypsin; [4])	Kd (Plasmin; [5])	Compound	Human Plasma Anticoagulation 2x Clotting time (ng/mL) APTT (human or animal plasma [1])	Human Plasma Anticoagulation 2x Clotting time (ng/mL) TT (human or animal plasma [2])	Human Plasma Anticoagulation 2x Clotting time (ng/mL) PT (human or animal plasma [3])	Kd (factor Xa)	Kd (Trypsin)	Kd (t-PA)	Kd (Plasmin)
7.14 µM	14.1 µM	–	–	N=C(N)c1ccc(CNC(=O)CN(CCc2ccccc2)C(=O)CNCC(=O)O)cc1 [Example 89, HOOCCH2-Gly-N-C6H5CH2CH2Gly-p-NHCH2C6H4C(NH)NH2·HCl]	51,000 ng/mL	570 ng/mL	37,000 ng/mL	–	–	–	–
1.64 µM	500 µM	–	–	CCC(CC)C(=O)N[C@@H](CCC(=O)O)C(=O)N1CCC[C@H]1C(=O)NCc1ccc(C(=N)N)cc1 [Example 90, (C2H5)2CHCO-Glu-Pro-p-NHCH2C6H4C(NH)NH2·HCl]	14,500 ng/mL	330 ng/mL	14,600 ng/mL	–	–	–	–
8.33 µM	> 1000 µM	> 50 µM	> 1000 µM	N=C(N)Nc1ccc(CCNC(=O)[C@@H]2CCCN2C(=O)[C@@H]2NCC[C@@H]3CCCC[C@@H]32)cc1 [Example 39, D-1-Piq-Pro-p-NHCH2CH2C6H4NHC(NH)NH2·2HCl]	69,200 ng/mL	5,300 ng/mL	78,600 ng/mL	–	–	–	–
0.0909 µM	–	0.116 µM	–	NCc1ccc(CNC(=O)[C@@H]2CCCN2C(=O)[C@@H](CC2CCCCC2)NCC(=O)O)cc1 [Example 78, HO2CCH2-D-Cha-Pro-4-NHCH2C6H4CH2NH2·HCl]	430 ng/mL	46 ng/mL	760 ng/mL	–	–	–	–
50 µM	–	> 111 µM	–	CCS(=O)(=O)N[C@H](Cc1ccccc1)C(=O)N1CCC[C@H]1C(=O)NCCc1cccc(NC(=N)N)c1 [Example 37, EtSO2-D-Phe-Pro-m-NHCH2CH2C6H4NHC(NH)NH2·HCl]	>9,000 ng/mL	>9,000 ng/mL	>9,000 ng/mL	–	–	–	–
